# Source: patent US8802672B2, “Pyrimidinyl-piperazines useful as D3/D2 receptor ligands” (Richter Gedeon Nyrt., priority 2007, dated 2014)
# Key:
# [1] = target: D2 receptor (rat brain striatal membrane preparation) (Rattus norvegicus (Rat), UniProt P61169); assay: D2 receptor binding; details: [3H]spiperone, rat striatal membranes
# male Wistar rats [2] = assay: Catalepsy test; format: in vivo; details: rat; for Catalepsy (MED): oral, minimum effective cataleptic dose; for TI, therapeutic index - catalepsy MED divided by amphetamine hypermotility ED50: in vivo
# [3] = target: rat recombinant D3 receptors (Rattus norvegicus (Rat), UniProt P19020); assay: D3 receptor binding; details: for Ki: [3H]spiperone, rat recombinant D3 in Sf9 cells
# [4] = target: adrenergic alpha-1 receptors (rat cortical membrane preparation); assay: Alpha-1 receptor binding; details: [3H]-prazosine, rat cortical membranes; read-out: α-1 Ki
# male Wistar rats [5] = assay: Scopolamine-induced learning disturbance in the water-labyrinth; format: in vivo, rat
# Experimental: 6. Scopolamine-Induced Learning Disturbance in the Water-Labyrinth
# The learning process of rats was assessed in a 3-choice point water-labyrinth system. The number of directional turning errors was recorded in three daily trials for three experimental days. Male Wistar rats weighing 180-200 g (n=10 per groups) were treated orally with vehicle or the test compounds 1 hour before each daily session. Scopolamine (3 mg/kg ip.) as amnestic agent was injected 30 minutes prior to the first daily trial. Mean±SE of errors committed in all the trials was calculated in each group. Percent inhibition of scopolamine-induced increase in the number of errors was calculated for each dose of the tested compound.
# male Wistar rats [6] = assay: Amphetamine-induced hypermotility; format: in vivo; details: oral, rat, d-amphetamine 0.5 mg/kg sc.; for ED50: read-out: Inhibition of amphetamine-induced hypermotility (ED50)
# Experimental: 4. Amphetamine-Induced Hypermotility
# One hour after the oral administration of doses of the test compound or vehicle, male Wistar rats were subcutaneously treated with d-amphetamine (0.5 mg/kg, sc.) and were individually placed in activity cages for one hour. Locomotor activity was measured in a four-channel activity monitor equipped with infrared photobeams Horizontal movement was determined as the number of beam interruptions. Mean±SE of horizontal activity data of each group was calculated. Percent inhibition of amphetamine-induced increase in locomotion was calculated for each dose of the tested compound. The ED-50 value was determined by linear regression fitted to the dose-response plot.
# Chain of D2 receptor (rat brain striatal membrane preparation) (P61169 whole entry): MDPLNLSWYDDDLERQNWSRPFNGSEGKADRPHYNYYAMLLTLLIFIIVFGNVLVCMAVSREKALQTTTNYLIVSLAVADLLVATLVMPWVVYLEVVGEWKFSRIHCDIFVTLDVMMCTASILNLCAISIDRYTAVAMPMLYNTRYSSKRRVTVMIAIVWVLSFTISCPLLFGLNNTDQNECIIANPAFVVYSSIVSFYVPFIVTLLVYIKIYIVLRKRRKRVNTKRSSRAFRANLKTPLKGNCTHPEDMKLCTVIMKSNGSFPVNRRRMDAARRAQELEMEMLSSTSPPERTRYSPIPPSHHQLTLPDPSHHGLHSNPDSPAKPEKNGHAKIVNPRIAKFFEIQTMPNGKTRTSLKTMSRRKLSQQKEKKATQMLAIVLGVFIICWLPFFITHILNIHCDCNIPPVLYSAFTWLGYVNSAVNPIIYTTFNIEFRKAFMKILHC
# Chain of rat recombinant D3 receptors (P19020 whole entry): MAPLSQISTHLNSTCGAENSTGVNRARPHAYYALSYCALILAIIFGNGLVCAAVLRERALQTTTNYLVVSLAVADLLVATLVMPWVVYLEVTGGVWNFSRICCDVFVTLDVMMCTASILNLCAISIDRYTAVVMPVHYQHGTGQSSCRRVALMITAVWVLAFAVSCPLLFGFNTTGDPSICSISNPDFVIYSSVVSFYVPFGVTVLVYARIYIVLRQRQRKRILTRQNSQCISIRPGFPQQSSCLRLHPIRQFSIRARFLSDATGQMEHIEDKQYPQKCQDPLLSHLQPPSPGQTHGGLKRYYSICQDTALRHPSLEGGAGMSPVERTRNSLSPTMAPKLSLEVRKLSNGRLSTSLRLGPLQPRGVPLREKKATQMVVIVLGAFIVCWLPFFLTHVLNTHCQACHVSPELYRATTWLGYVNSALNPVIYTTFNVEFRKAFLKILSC
Ki [1],"Sel. = D2/D3 selectivity, Ki for D2 receptor divided by Ki for D3 receptor [3]",Ki [3],Ki [4],SMILES,further results
15 to 50 nM,22,< 1 nM,,"CNc1nc(Cl)c(Cl)c(N2CCN(CC[C@H]3CC[C@H](NC(C)=O)CC3)CC2)n1 [Compound 1, Trans-N-(4-{2-[4-(5,6-dichloro-2-methylamino-pyrimidin-4-yl)-piperazin-1-yl]-ethyl}-cyclohexyl)-acetamide]","Catalepsy (MED) (male Wistar rats [2]): 100 mg/kg; TI, therapeutic index - catalepsy MED divided by amphetamine hypermotility ED50 (male Wistar rats [2]): 714"
,27,,> 1000 nM,"CNc1nc(Cl)c(Cl)c(N2CCN(CC[C@H]3CC[C@H](NC(N)=O)CC3)CC2)n1 [Compound 2, Trans-(4-{2-[4-(5,6-dichloro-2-methylamino-pyrimidin-4-yl)-piperazin-1-yl]-ethyl}-cyclohexyl)-urea]",
,23,,> 1000 nM,"CCNc1nc(Cl)c(Cl)c(N2CCN(CC[C@H]3CC[C@H](NC(C)=O)CC3)CC2)n1 [Compound 6, trans-N-(4-{2-[4-(5,6-dichloro-2-ethylamino-pyrimidin-4-yl)-piperazin-1-yl]-ethyl}-cyclohexyl)-acetamide]",
,,,> 1000 nM,"CNc1nc(Cl)c(Cl)c(N2CCN(CC[C@H]3CC[C@H](NC(=O)N4CCOCC4)CC3)CC2)n1 [Compound 7, trans-morpholine-4-carboxylic acid (4-{2-[4-(5,6-dichloro-2-methylamino-pyrimidin-4-yl)-piperazin-1-yl]-ethyl}-cyclohexyl)-amide]",
,17,,,"CCNC(=O)N[C@H]1CC[C@H](CCN2CCN(c3nc(NC)nc(Cl)c3Cl)CC2)CC1 [Compound 10, Trans-1-(4-{2-[4-(5,6-dichloro-2-methylamino-pyrimidin-4-yl)-piperazin-1-yl]-ethyl}-cyclohexyl)-3-ethyl-urea]",
5 to 15 nM,43,< 1 nM,> 1000 nM,CCC(=O)N[C@H]1CC[C@H](CCN2CCN(c3nc(NC)nc(Cl)c3Cl)CC2)CC1 [Compound 11],
,,,,"Cc1cc2c(s1)Nc1ccccc1N=C2N1CCN(C)CC1 [Olanzapine, reference compound]",% inhibition of scopolamine-induced learning disturbance (male Wistar rats [5]; dose 1 mg/kg oral): −12%; % inhibition of scopolamine-induced learning disturbance (male Wistar rats [5]; dose 3 mg/kg oral): −49%; ED50 (male Wistar rats [6]): 1.8 mg/kg
,,,,"Cc1nc2n(c(=O)c1CCN1CCC(c3noc4cc(F)ccc34)CC1)CCCC2 [Risperidone, reference compound]",% inhibition of scopolamine-induced learning disturbance (male Wistar rats [5]; dose 0.5 mg/kg oral): −15%; ED50 (male Wistar rats [6]): 0.15 mg/kg

SMILES,Ki [1],"Sel. = D2/D3 selectivity, Ki for D2 receptor divided by Ki for D3 receptor [3]",Ki [3],Ki [4],further results
CNc1nc(Cl)c(Cl)c(N2CCN(CC[C@H]3CC[C@H](NC(=O)N(C)C)CC3)CC2)n1 [Compound 8],15 to 50 nM,7,1 to 3 nM,> 1000 nM,"% inhibition of scopolamine-induced learning disturbance (male Wistar rats [5]; dose 0.025 mg/kg oral): 38%; % inhibition of scopolamine-induced learning disturbance (male Wistar rats [5]; dose 0.05 mg/kg oral): 65%; % inhibition of scopolamine-induced learning disturbance (male Wistar rats [5]; dose 1 mg/kg oral): 31%; Inhibition of amphetamine-induced hypermotility (ED50) (male Wistar rats [6]): 0.14 mg/kg; Catalepsy (MED) (male Wistar rats [2]): >25 mg/kg; TI, therapeutic index - catalepsy MED divided by amphetamine hypermotility ED50 (male Wistar rats [2]): >179"
